These results are taken from patent US4485117A, “Antiprotozoal compounds” (priority 1981, dated 1984).

The nature of series [1]: in vivo. The note with it: rat, rats, oral, read-out: acute oral LD50. The protocol: The acute oral LD50 's of compounds of formula (I) in rats were determined by standard techniques.
The target of series [2] is cyclo oxygenase. As to the kind of experiment: Enzyme assay, inhibition of cyclo oxygenase. As to conditions: in vitro. Format: biochemical, rabbit.
In series [3] the target is lipoxygenase. The series is described as follows: Enzyme assay, inhibition of lipoxygenase. The note with it: in vitro. Format: biochemical, rabbit.
The subject of series [4] is rat eye. As to the kind of experiment: Anti-inflammatory activity in the rat eye (bacterial endotoxin induced). The note with it: assessed at 24 and 48 hours. Format: in vivo. The protocol: The anti-inflammatory activity in the rat eye was determined, following both oral and topical administration, of 2-(4-t-butylcyclohexyl)-3-hydroxy-1,4-naphthoquinone. The inflammatory response for the test employed developed following injection of gram-negative bacterial endotoxin into the rat foodpad (Rosenbaum et. al Nature 286, 611-613 (1980)).
Vasodilation was assessed at 24 and 48 hours using a slit lamp, the rats then killed and the aqueous humour aspirated for determination of protein concentrations and total leucocyte numbers. The results are shown below as ED50.

Series [5] concerns Plasmodium falciparum. As to the kind of experiment: Inhibitory effect on Plasmodium falciparum in culture (G-3H-hypoxanthine uptake). Format: cell-based. The note with it: for pIC50: P. falciparum culture, 36 hours, read-out: ED50 (the source's name). Here is the method:
Compounds of the following formula, including compounds of formula (I), were examined for their inhibitory effect on Plasmodium falciparum. [drawing 11]
The test method was a modification of that described by Desjardins et al., Antimicrob. Agents and Chemotherapy,1979,16,710-718. Compounds were dissolved in ethanol at a concentration of 1000 mg/L and dilutions down to 1 mg/L were made. The drug solutions were serially diluted using RPMI 1640 medium+10% human plasma in microtitration plates. Parasitised and fresh red blood cells were added together with G^3 H-hypoxanthine, in RPMI 1640 medium+10% human plasma and the cultures incubated for 36 hours. Cultures were then harvested, the particulate contents collected on a glass-fibre filter paper and washed copiously with water. The filter papers were dried and the radioactivity measured using a scintillation counter. Infected untreated and uninfected untreated cultures were included as controls. Percent inhibition was correlated with dose to provide an ED50.

Series [6] concerns E. tenella. The series is described as follows: In vitro activity against E. tenella in cell cultures. Format: cell-based. As to conditions: Eimeria tenella, 96 hours, read-out: MIC (minimum inhibitory concentration). Here is the method: Compounds tested in Example 5 were assessed for their activity against E. tenella. In the method employed cell cultures were infected with sporozoite suspensions of E. tenella immediately after addition of the compounds. […] After incubation for 96 hours the cultures were fixed and the cells were stained with 0.1% toluidine blue. The stained cultures were examined microscopically for presence of parasites.

Series [7] has as its system Eimeria tenella. The series is described as follows: In vivo anticoccidiosis screen in chicks, E. tenella. Also noted: species or system Eimeria tenella; male Ross Ranger chicks. As to conditions: 6 days, fifth day of infection, groups of 5. The protocol:
(§1) Compounds tested in Example 7(a) were examined in an in vivo anticoccidiosis screen.
(§2) The compounds were administered to groups of 5 male Ross Ranger chicks (7 days old), at various dosages in the diet, for 6 days. The chicks were each infected with Eimeria tenella and E. acervulina one day after the beginning of the medication. The number of birds cleared of E. tenella lesions was noted on the fifth day of infection as was the presence or absence of E. acervulina oocysts in the droppings. The results are shown in Table 3, in which the numbers refer to the number of birds cleared of E. tenella and the letters indicate the presence or absence of E. acervulina /A=absent; P=present; M=95% clearance in comparision with untreated controls/.

Series [8] deals with E. acervulina. As to the kind of experiment: In vivo anticoccidiosis screen in chicks, E. acervulina. As to conditions: 6 days, fifth day of infection. Also noted: species or system Eimeria acervulina; male Ross Ranger chicks; key: A: absent; P: present; M: 95% clearance in comparision with untreated controls. Here is the method: as §1, §2
Series [9] deals with malaria. The note with it: background art; cited from earlier work.

The structures appear in SMILES notation. pIC50: −log10 of the molar value. Converted amounts (≈) assume the structure as drawn. Read-outs that look alike come from different tables or passages of the source. Bounds are passed on as bounds.

As to `CC(C)(C)C1CCC(C2=C(O)C(=O)c3ccccc3C2=O)CC1` (stereo not shown) [2-(4'-t-butylcyclohexyl)-3-hydroxy-1,4-naphthoquinone], the LD50 in series [1] is over 1000 mg/kg. Further, the pIC50 in series [2] is 4.24; in series [3] it was 4.64. Moreover, the ED50 in series [4] (Rattus norvegicus, oral) lay within 5 to 25 mg/kg. Also, in series [4] (topical), the “ED50, anti-inflammatory activity in the rat eye” value is 10-20 ug/eye.

As for `CCC(C)(C)C1CCC(C2=C(O)C(=O)c3ccccc3C2=O)CC1` (stereo not shown) [2-hydroxy-3-(4'-t-pentylcyclohexyl)-1,4-naphthoquinone], the pIC50 in [2] was 4.20; in series [3], 4.54.

Take `CC(C)(C)C1CCCC(C2=C(O)C(=O)c3ccccc3C2=O)C1` (stereo not drawn) [3'-t-Butyl (80% trans), reference compound]: in [5] (Plasmodium falciparum, 36 h), the pIC50 is 6.52. Besides, the MIC in series [6] is 4 µM (≈ 1.25 µg/mL).

Take `O=C1C(O)=C([C@H]2CC[C@H](C3CCCCC3)CC2)C(=O)c2ccccc21` [4'-Cyclohexyl (100% trans), reference compound]: the pIC50 in series [5] (Plasmodium falciparum, 36 h) was 8.39. Besides, the MIC in series [6] was found to be 0.092 µM (≈ 0.0311 µg/mL). The “number of birds cleared of E. tenella lesions” value (from here on “number”) is listed as 1/5 in [7] (50 ppm in diet), 5/5 in [7] (100 ppm in diet) and 5/5 in series [7] (200 ppm in diet). The entries for the “presence or absence of E. acervulina oocysts in the droppings” value (“presence or absence” for short) in [8] (50 ppm in diet), in series [8] (100 ppm in diet) and in series [8] (200 ppm in diet) were “P”, “P” and “A”, respectively.

As to `C[C@H]1CC[C@H](C2=C(O)C(=O)c3ccccc3C2=O)CC1` [4'-Methyl (100% trans), reference compound], the pIC50 in series [5] (Plasmodium falciparum, 36 h) is 8.04. Also, the MIC in series [6] came out at 0.46 µM (≈ 0.124 µg/mL).

As for `CC(C)(C)C1CCC(C2=C(O)C(=O)c3ccccc3C2=O)CC1` (stereo not drawn) [4'-t-Butyl (50% trans), 2-(4'-t-butylcyclohexyl)-3-hydroxy-1,4-naphthoquinone], the pIC50 in [5] (2160 min) was 9.22.

For `CC(C)(C)C1CCC(C2=C(O)C(=O)c3ccccc3C2=O)CC1` (stereo not drawn) [4'-t-Butyl (75% trans), 2-(4'-t-butylcyclohexyl)-3-hydroxy-1,4-naphthoquinone], in series [5] (2160 min), the pIC50 was 10.25.

As to `CC(C)(C)C1CCC(C2=C(O)C(=O)c3ccccc3C2=O)CC1` (stereo not drawn) [4'-t-Butyl (80% trans), 2-(4'-t-butylcyclohexyl)-3-hydroxy-1,4-naphthoquinone], the pIC50 in series [5] (2160 min) was 10.43. The MIC in series [6] worked out at 0.01 µM (≈ 0.00312 µg/mL). Moreover, the “number” value is reported as 0/5 in series [7] (50 ppm in diet) and 5/5 in series [7] (100 ppm in diet). Besides, the “presence or absence” value was “P” in series [8] (50 ppm in diet) and “A” in series [8] (100 ppm in diet).

With `CC(C)(C)[C@H]1CC[C@@H](C2=C(O)C(=O)c3ccccc3C2=O)CC1` [4'-t-Butyl (100% cis), 2-(cis-4'-t-butylcyclohexyl)-3-hydroxy-1,4-naphthoquinone], the pIC50 in [5] (Plasmodium falciparum, 36 h) was 8.97. The MIC in [6] amounted to 0.025 µM (≈ 0.00781 µg/mL).

Take `CC(C)(C)[C@H]1CC[C@H](C2=C(O)C(=O)c3ccccc3C2=O)CC1` [4'-t-Butyl (100% trans), 2-(trans-4'-t-butylcyclohexyl)-3-hydroxy-1,4-naphthoquinone]: the pIC50 in series [5] (Plasmodium falciparum, 36 h) is 10.24.

Regarding `CCC(C)(C)C1CCC(C2=C(O)C(=O)c3ccccc3C2=O)CC1` (stereo not drawn) [4'-t-Pentyl (50% trans), 2-hydroxy-3-(4'-t-pentylcyclohexyl)-1,4-naphthoquinone], in series [6], the MIC came to 0.0096 µM (≈ 0.00313 µg/mL).

For `CCC(C)(C)C1CCC(C2=C(O)C(=O)c3ccccc3C2=O)CC1` (stereo not drawn) [4'-t-Pentyl (60% trans), 2-hydroxy-3-(4'-t-pentylcyclohexyl)1,4-naphthoquinone], the pIC50 in series [5] (Plasmodium falciparum, 36 h) is 10.22. The entries for the “number” value in series [7] (50 ppm in diet), in series [7] (100 ppm in diet) and in series [7] (200 ppm in diet) were 4/5, 5/5 and 5/5, respectively. Besides, the “presence or absence” value in series [8] (50 ppm in diet) is “M (95% clearance in comparision with untreated controls)”; in series [8] (100 ppm in diet), “A”; in series [8] (200 ppm in diet) it was “A”.

As for `O=C1C(O)=C(CCCCCCCCC2CCCCC2)C(=O)c2ccccc21` [Menoctone, 2-(8-cyclohexyloctyl)-3-hydroxy-1,4-naphthoquinone, reference compound], in series [5] (36 h), the ED50 is reported as 2.55×10^-7. Moreover, in series [9], the “activity in man (in words)” value was “poor activity in man”.
